# Measured values taken from patent US11058678B2 (Enanta Pharmaceuticals, Inc., priority 2018, dated 2021).
# Tested on: HBV (2.2.15 cells)
# Assay: Antiviral activity in 2.2.15 cells: reduction of viral product accumulation (qPCR of lysates, HBsAg or HBeAg ELISA)
# Assay type: cell-based, hepatitis B virus (HBV)
# Details: Hepatitis B virus, 120 h, day 5 post treatment, 50% reduction of viral product accumulation in lysates or supernatants vs no drug controls, readout (qPCR, HBsAg, HBeAg) not specified
# In short: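 HBV-producing 2.2.15 cells, 35,000/well, treated with 5-fold serial compound dilutions at 0.5% final DMSO for 5 days. Lysate HBV DNA by qPCR or supernatant HBsAg/HBeAg by ELISA; EC50 is 50% reduction versus no-drug control, binned A<0.1 μM, B 0.1-1 μM, C>1 μM.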
row,SMILES,EC50 [nM]
1,"COCCCOc1cc2c(cc1-c1cnco1)-c1cc(=O)c(C(=O)O)cn1[C@H]1[C@@H]2CCC1(C)C [Example 63, (3aS,12bR)-11-(3-methoxypropoxy)-3,3-dimethyl-10-(oxazol-5-yl)-7-oxo-1,2,3,3a,7,12b-hexahydrocyclopenta[c]pyrido[2,1-a]isoquinoline-6-carboxylic Acid]",< 100
2,"CC(C)(C)[C@@H]1Cc2c(cc(-c3ccsc3)c3c2CCO3)-c2cc(=O)c(C(=O)O)cn21 [Example 71, (S)-5-(tert-butyl)-9-oxo-12-(thiophen-3-yl)-2,3,4,9-tetrahydro-5H-furo[3,2-f]pyrido[2,1-a]isoquinoline-8-carboxylic Acid]",< 100
3,"CC(C)[C@@H]1Cc2c(cc(N3CCC3)c3c2CCO3)-c2cc(=O)c(C(=O)O)cn21 [Example 117, (S)-12-(azetidin-1-yl)-5-isopropyl-9-oxo-2,3,4,9-tetrahydro-5H-furo[3,2-f]pyrido[2,1-a]isoquinoline-8-carboxylic Acid]",< 100
4,"COCCCOc1cc2c(cc1-c1cccc(OC)c1)-c1cc(=O)c(C(=O)O)cn1[C@H]1[C@@H]2COC1(C)C [Example 140, (3aS,12bR)-10-(3-methoxyphenyl)-11-(3-methoxypropoxy)-3,3-dimethyl-7-oxo-3,3a,7,12b-tetrahydro-1H-furo[3,4-c]pyrido[2,1-a]isoquinoline-6-carboxylic Acid]",< 100
5,"CC(C)[C@@H]1Cc2c(cc(-c3ccn[nH]3)c3c2CCO3)-c2cc(=O)c(C(=O)O)cn21 [Example 106, (S)-5-isopropyl-9-oxo-12-(1H-pyrazol-5-yl)-2,3,4,9-tetrahydro-5H-furo[3,2-f]pyrido[2,1-a]isoquinoline-8-carboxylic Acid]",< 100
6,"COCCCOc1cc2c(cc1-c1ccc(OC3CC3)cc1)-c1cc(=O)c(C(=O)O)cn1[C@H](C(C)(C)C)C2 [Example 40, (S)-6-(tert-butyl)-10-(4-cyclopropoxyphenyl)-9-(3-methoxypropoxy)-2-oxo-6,7-dihydro-2H-pyrido[2,1-a]isoquinoline-3-carboxylic Acid]",> 1000
7,"CC(C)(C)[C@@H]1Cc2c(cc(N3CC(F)(F)C3)c3c2C[C@H](C(F)F)O3)-c2cc(=O)c(C(=O)O)cn21 [Example 155, (2R,5S)-5-(tert-butyl)-12-(3,3-difluoroazetidin-1-yl)-2-(difluoromethyl)-9-oxo-2,3,4,9-tetrahydro-5H-furo[3,2-f]pyrido[2,1-a]isoquinoline-8-carboxylic Acid]",> 1000
8,"COc1cccc(-c2cc3c(c4c2OCC4)C[C@@H](C(C)C)n2cc(C(=O)O)c(=O)cc2-3)c1 [Example 92, (S)-5-isopropyl-12-(3-methoxyphenyl)-9-oxo-2,3,4,9-tetrahydro-5H-furo[3,2-f]pyrido[2,1-a]isoquinoline-8-carboxylic Acid]",< 100
9,"CC1(C)Cc2c3c(cc(-c4ccco4)c2O1)-c1cc(=O)c(C(=O)O)cn1[C@H](C(C)(C)C)C3 [Example 148, (S)-5-(tert-butyl)-12-(furan-2-yl)-2,2-dimethyl-9-oxo-2,3,4,9-tetrahydro-5H-furo[3,2-f]pyrido[2,1-a]isoquinoline-8-carboxylic Acid]",> 1000
10,"COCCCOc1cc2c(cc1-c1ccnn1C)-c1cc(=O)c(C(=O)O)cn1[C@H]1[C@@H]2COC1(C)C [Example 122, (3aS,12bR)-11-(3-methoxypropoxy)-3,3-dimethyl-10-(1-methyl-1H-pyrazol-5-yl)-7-oxo-3,3a,7,12b-tetrahydro-1H-furo[3,4-c]pyrido[2,1-a]isoquinoline-6-carboxylic Acid]",> 1000
11,"CC(C)[C@@H]1Cc2c(cc(-c3cccs3)c3c2CCO3)-c2cc(=O)c(C(=O)O)cn21 [Example 99, (S)-5-isopropyl-9-oxo-12-(thiophen-2-yl)-2,3,4,9-tetrahydro-5H-furo[3,2-f]pyrido[2,1-a]isoquinoline-8-carboxylic Acid]",< 100
12,"CC(C)(C)[C@@H]1Cc2c(cc(-c3cccnc3)c3c2CCO3)-c2cc(=O)c(C(=O)O)cn21 [Example 75, (S)-5-(tert-butyl)-9-oxo-12-(pyridin-3-yl)-2,3,4,9-tetrahydro-5H-furo[3,2-f]pyrido[2,1-a]isoquinoline-8-carboxylic Acid]",< 100
13,"COCCCOc1cc2c(cc1-c1ccco1)-c1cc(=O)c(C(=O)O)cn1[C@H]1[C@@H]2COC1(C)C [Example 125, (3aS,12bR)-10-(furan-2-yl)-11-(3-methoxypropoxy)-3,3-dimethyl-7-oxo-3,3a,7,12b-tetrahydro-1H-furo[3,4-c]pyrido[2,1-a]isoquinoline-6-carboxylic Acid]",< 100
14,"CC(C)[C@@H]1Cc2c(cc(-c3cccc(Cl)c3)c3c2CCO3)-c2cc(=O)c(C(=O)O)cn21 [Example 112, (S)-12-(3-chlorophenyl)-5-isopropyl-9-oxo-2,3,4,9-tetrahydro-5H-furo[3,2-f]pyrido[2,1-a]isoquinoline-8-carboxylic Acid]",> 1000
15,"Cn1ccc(-c2cc3c(c4c2OCC4)C[C@@H](C(C)(C)C)n2cc(C(=O)O)c(=O)cc2-3)n1 [Example 70, (S)-5-(tert-butyl)-12-(1-methyl-1H-pyrazol-3-yl)-9-oxo-2,3,4,9-tetrahydro-5H-furo[3,2-f]pyrido[2,1-a]isoquinoline-8-carboxylic Acid]",< 100
16,"COCCCOc1cc2c(cc1-c1cn(C)nc1C)-c1cc(=O)c(C(=O)O)cn1[C@H](C(C)(C)C)C2 [Example 32, (S)-6-(tert-butyl)-10-(1,3-dimethyl-1H-pyrazol-4-yl)-9-(3-methoxypropoxy)-2-oxo-6,7-dihydro-2H-pyrido[2,1-a]isoquinoline-3-carboxylic Acid]",< 100
17,"COCCCOc1cc2c(cc1-c1ccc(Cl)cc1)-c1cc(=O)c(C(=O)O)cn1[C@H]1[C@@H]2COC1(C)C [Example 137, (3aS,12bR)-10-(4-chlorophenyl)-11-(3-methoxypropoxy)-3,3-dimethyl-7-oxo-3,3a,7,12b-tetrahydro-1H-furo[3,4-c]pyrido[2,1-a]isoquinoline-6-carboxylic Acid]",> 1000
18,"CC(C)[C@@H]1Cc2c(cc(-c3ccccc3)c3c2CCO3)-c2cc(=O)c(C(=O)O)cn21 [Example 93, (S)-5-isopropyl-9-oxo-12-phenyl-2,3,4,9-tetrahydro-5H-furo[3,2-f]pyrido[2,1-a]isoquinoline-8-carboxylic Acid]",< 100
19,"CC(C)[C@@H]1Cc2c(cc(-c3ccc(C(F)(F)F)cc3)c3c2CCO3)-c2cc(=O)c(C(=O)O)cn21 [Example 94, (S)-5-isopropyl-9-oxo-12-(4-(trifluoromethyl)phenyl)-2,3,4,9-tetrahydro-5H-furo[3,2-f]pyrido[2,1-a]isoquinoline-8-carboxylic Acid]",> 1000
20,"COCCCOc1cc2c(cc1-c1cnc(OC)nc1)-c1cc(=O)c(C(=O)O)cn1[C@H](C(C)(C)C)C2 [Example 44, (S)-6-(tert-butyl)-9-(3-methoxypropoxy)-10-(2-methoxypyrimidin-5-yl)-2-oxo-6,7-dihydro-2H-pyrido[2,1-a]isoquinoline-3-carboxylic Acid]",< 100
21,CC(C)[C@@H]1Cc2c(cc(-c3ccccc3Cl)c3c2CCO3)-c2cc(=O)c(C(=O)O)cn21 [Example 113],> 1000
22,"CCc1nnc(-c2cc3c(cc2OCCCOC)C[C@@H](C(C)(C)C)n2cc(C(=O)O)c(=O)cc2-3)o1 [Example 43, (S)-6-(tert-butyl)-10-(5-ethyl-1,3,4-oxadiazol-2-yl)-9-(3-methoxypropoxy)-2-oxo-6,7-dihydro-2H-pyrido[2,1-a]isoquinoline-3-carboxylic Acid]",< 100
23,"CC(C)(C)[C@@H]1Cc2c(cc(C3CCCO3)c3c2CCO3)-c2cc(=O)c(C(=O)O)cn21 (stereo partly drawn) [Example 129, (5S)-5-(tert-butyl)-9-oxo-12-(tetrahydrofuran-2-yl)-2,3,4,9-tetrahydro-5H-furo[3,2-f]pyrido[2,1-a]isoquinoline-8-carboxylic Acid]",< 100
24,"CC(C)[C@@H]1Cc2c(cc(-c3ccnn3C)c3c2CCO3)-c2cc(=O)c(C(=O)O)cn21 [Example 96, (S)-5-isopropyl-12-(1-methyl-1H-pyrazol-5-yl)-9-oxo-2,3,4,9-tetrahydro-5H-furo[3,2-f]pyrido[2,1-a]isoquinoline-8-carboxylic Acid]",< 100
25,"CC(C)(C)[C@@H]1Cc2c(cc(-c3cnsc3)c3c2CCO3)-c2cc(=O)c(C(=O)O)cn21 [Example 73, (S)-5-(tert-butyl)-12-(isothiazol-4-yl)-9-oxo-2,3,4,9-tetrahydro-5H-furo[3,2-f]pyrido[2,1-a]isoquinoline-8-carboxylic Acid]",< 100
26,"CC(C)(C)[C@@H]1Cc2c(cc(N3CCCC3)c3c2CCO3)-c2cc(=O)c(C(=O)O)cn21 [Example 88, (S)-5-(tert-butyl)-9-oxo-12-(pyrrolidin-1-yl)-2,3,4,9-tetrahydro-5H-furo[3,2-f]pyrido[2,1-a]isoquinoline-8-carboxylic Acid]",< 100
27,"CC(C)[C@@H]1Cc2c(cc(-c3cccc(F)c3)c3c2CCO3)-c2cc(=O)c(C(=O)O)cn21 [Example 107, (S)-12-(3-fluorophenyl)-5-isopropyl-9-oxo-2,3,4,9-tetrahydro-5H-furo[3,2-f]pyrido[2,1-a]isoquinoline-8-carboxylic Acid]",< 100
28,"Cn1cc(-c2cc3c(c4c2OC(C)(C)C4)C[C@@H](C(C)(C)C)n2cc(C(=O)O)c(=O)cc2-3)cn1 [Example 151, (S)-5-(tert-butyl)-2,2-dimethyl-12-(1-methyl-1H-pyrazol-4-yl)-9-oxo-2,3,4,9-tetrahydro-5H-furo[3,2-f]pyrido[2,1-a]isoquinoline-8-carboxylic Acid]",> 1000

# Tested on: not listed separately
# Assay: Compound induced cellular toxicity in HepG2 cells (ATPlite 1 Step)
# Assay type: cell-based
# Details: human, three days, 50% reduction of total ATP levels vs no drug controls
# Description: At day 3, post seeding cells are treated with ATPlite 1 Step according to the manufacturer's instructions.
row,SMILES,CC50 at 3 days [nM]
1,"COCCCOc1cc2c(cc1-c1cnco1)-c1cc(=O)c(C(=O)O)cn1[C@H]1[C@@H]2CCC1(C)C [Example 63, (3aS,12bR)-11-(3-methoxypropoxy)-3,3-dimethyl-10-(oxazol-5-yl)-7-oxo-1,2,3,3a,7,12b-hexahydrocyclopenta[c]pyrido[2,1-a]isoquinoline-6-carboxylic Acid]",10000 to 25000
2,"CC(C)(C)[C@@H]1Cc2c(cc(-c3ccsc3)c3c2CCO3)-c2cc(=O)c(C(=O)O)cn21 [Example 71, (S)-5-(tert-butyl)-9-oxo-12-(thiophen-3-yl)-2,3,4,9-tetrahydro-5H-furo[3,2-f]pyrido[2,1-a]isoquinoline-8-carboxylic Acid]",< 10000
